Laboratory results: patent US5475032A, “2,4-disulfonyl phenyl butyl nitrone, its salts, and their use as pharmaceuticals” (Oklahoma Medical Research Foundation, priority 1995, dated 1995)
Like-named read-outs stand apart in the source and are kept apart here.

Columns and labels:
[1] = tested on: neuron loss following brain ischemia and reperfusion injury; experiment: neuronal density after 5 min bilateral carotid occlusion, compound i.p. 30 min before ischemia (Example 3); assay type: in vivo, gerbil; conditions: 30 min before ischemia
Experimental: In the experiments a test compound was administered to groups of six gerbils i.p. as a single dose 30 min before 5 min bilateral carotid occlusion. The density of neuronal nuclei in a 100 micron was measured. Two controls were present--controls which received no test compound and controls which received no test compound and no brain ischemia.

[2] = tested on: neuron loss following brain ischemia and reperfusion injury; experiment: neuronal density, post-ischemia treatment, compound i.p. 30 min after reperfusion following 5 min ischemia (Example 4); assay type: in vivo, gerbil
[3] = tested on: neuronal loss following ischemia; experiment: protection from neuronal loss, i.v. 60 min after reperfusion onset following 5 min ischemia (Example 5); assay type: in vivo, gerbil; conditions: for protection for neuronal loss (neuronal density): 60 min after reperfusion onset
[4] = tested on: temporal/spatial short term memory following ischemia; experiment: 8-arm radial maze test 24 hours after ischemia (Example 6); assay type: in vivo, gerbil
Experimental: Brain injury can manifest itself as behavioral changes. In this experiment, young adult (3-4 months of age) gerbils were tested to determine their ability to perform an 8-arm maze test 24 hours following an ischemic event as described in Example 1. As compared to nonischemic animals, when untreated they committed many more errors. PBN and compound I were administered to some of the test animals.

[5] = tested on: infarct volume following middle cerebral occlusion; experiment: infarct volume after middle cerebral occlusion (Example 7); assay type: in vivo, C57BL/6J mice; conditions: from 60 min after occlusion for 24 hours
Experimental: The ability of the compound of the invention to reduce infarct volume following an ischemic event was determined.

[6] = tested on: lethality from 10 min ischemia; experiment: lethality protection in aged gerbils from 10 min ischemia (Example 8); assay type: in vivo, gerbil; conditions: 30 min before ischemia
[7] = tested on: C57BL/6L mice; experiment: acute lethality, single i.p. doses of nitrone (Example 9); assay type: in vivo, mouse; conditions: PBN at 560 mg/kg, Compound I at doses nearly twenty times as great
Experimental: As detailed in Table 7. acute lethality in C57BL/6L mice was determined based upon varying sizes of single i.p. doses of nitrone.

[8] = tested on: glutamine synthetase (GS); experiment: protection of glutamine synthetase against βAP 25-35 (Example 11); assay type: biochemical, gerbil; conditions: co-incubation with 0.4 mg/ml BAP 25-35
Experimental: (§1) Cytosolic fractions from gerbil neocortex were prepared and enzyme activities determined. Samples were incubated in the presence of different concentrations of the peptide for 10 min prior to assay. Solid symbols represent the effects of the naturally occurring 25-35 fragment. […] Each point is the mean (+/- s.e.) of 5 observations. βAP derived and other cellular sources of free radicals are an important determinant of the initiation and progression of AD.
(§2) Each point is the mean (+/- s.e.) of 3 observations.

[9] = tested on: creatine kinase (CK); experiment: protection of creatine kinase against βAP 25-35 (Example 11); assay type: biochemical, gerbil; conditions: co-incubation with 0.4 mg/ml BAP 25-35
Experimental: as §1, §2

[10] = comparative tests: nitrone pretreatment combined with adriamycin (Example 13); assay type: in vivo, mouse; conditions: mouse, in vivo, ip; 300 mg/kg with adriamycin; read-out: combined toxicity (lethality)
From the text: (§3) All injections were intraperitoneal.

[11] = tested on: acute lethal effects of adriamycin; experiment: as above; assay type: in vivo, mouse
From the text: as §3

[12] = tested on: infarct volume following middle cerebral artery occlusion; conditions: cited from earlier work
[13] = tested on: severe trauma ischemia; conditions: in vivo; cited from earlier work
[14] = tested on: normal or uninjured cells; conditions: cited from earlier work
[15] = doses demonstrated to be possible; conditions: up to 1000 mg/kg/hour and higher, or i.v. bolus 10 to 2500 mg/kg

## CC(C)(C)[N+]([O-])=Cc1ccccc1 [PBN, Alpha-phenyl tert butyl nitrone]
[1]; 3.2 mg/kg i.p.
  Neuronal nuclei/100 micron field: 0.43 Neuronal nuclei/100 micron field
[1]; 10 mg/kg i.p.
  Neuronal nuclei/100 micron field: 1.13 Neuronal nuclei/100 micron field
[1]; 32 mg/kg i.p.
  Neuronal nuclei/100 micron field: 1.83 Neuronal nuclei/100 micron field
[1]; 50 mg/kg i.p.
  Neuronal nuclei/100 micron field: 3.11 Neuronal nuclei/100 micron field
[1]; 100 mg/kg i.p.
  Neuronal nuclei/100 micron field: 3.68 Neuronal nuclei/100 micron field
[1]; 320 mg/kg i.p.
  Neuronal nuclei/100 micron field: 3.78 Neuronal nuclei/100 micron field
[1]; 1000 mg/kg i.p.
  Neuronal nuclei/100 micron field: Toxic
[1]; 3200 mg/kg i.p.
  Neuronal nuclei/100 micron field: Toxic
[2]; 32 mg/kg i.p.
  Neuronal nuclei/100 micron field: 1.09 Neuronal nuclei/100 micron field
[2]; 50 mg/kg i.p.
  Neuronal nuclei/100 micron field: 1.85 Neuronal nuclei/100 micron field
[2]; 100 mg/kg i.p.
  Neuronal nuclei/100 micron field: 2.11 Neuronal nuclei/100 micron field
[2]; 320 mg/kg i.p.
  Neuronal nuclei/100 micron field: 2.25 Neuronal nuclei/100 micron field
[2]; 1000 mg/kg i.p.
  Neuronal nuclei/100 micron field: Toxic
[3]; 0.5 mg/kg single dose i.v.
  protection for neuronal loss (neuronal density): 0.83
[3]; 1.0 mg/kg single dose i.v.
  protection for neuronal loss (neuronal density): 1.07
[3]; 10 mg/kg single dose i.v.
  protection for neuronal loss (neuronal density): 1.23
[3]; control gerbils without brain injury
  effect on neuronal density in control gerbils: Neither PBN nor Compound I. had an effect on neuronal density
[4]; 1.0 mg/kg/hr for 24 hours
  errors in 8-arm radial maze: 29.8 errors
[4]; 32 mg/kg/hr for 24 hours
  errors in 8-arm radial maze: 18.19 errors
[4]; 50 mg/kg/hr for 24 hours
  errors in 8-arm radial maze: 6.23 errors
[4]; 100 mg/kg/hr for 24 hours
  errors in 8-arm radial maze: 5.83 errors
[4]; high doses
  error levels: less effective
[5]; 1.0 mg/kg/hr i.v.
  Infarct Volume: 17.7 mm^3
[5]; 10 mg/kg/hr i.v.
  Infarct Volume: 13.8 mm^3
[5]; 100 mg/kg/hr i.v.
  Infarct Volume: Toxic
[6]; 10 mg/kg
  lethality protection (% survived): 42%
[6]; 32 mg/kg
  lethality protection (% survived): 50%
[6]; 100 mg/kg
  lethality protection (% survived): 75%
[6]; 320 mg/kg
  lethality protection (% survived): 92%
[6]; Compound I: at high levels
  lethality protection: only partially effective
[7]
  toxicity: significant toxicity
[8]
  protection of GS against the effects of βAP fragments: asymptotically leveling out at a substantially incomplete level of protection
[9]
  protection of CK against the effects of βAP fragments: asymptotically leveling out at a substantially incomplete level of protection
[10]
  mortality: 10 to 20%
[11]; 100 mg/kg
  sedation: slight sedation
[11]; 300 mg/kg
  sedation: marked sedation
[12]; 100 mg/kg i.p. at 0.5, 5, 17, 29 and 41 hours post stroke
  infarct volume reduction: approximately 50%
[12]; 100 mg/kg i.p. at 5, 17, 29, and 41 hours post stroke
  infarct volume reduction: approximately 50%
[13]
  survival of treated animals vs controls: more likely to survive than controls
[14]
  effect on normal or uninjured cells: no measurable effect on normal or uninjured cells
[15]
  death or acute toxicity: death or acute toxicity
